Measured values published in PubChem BioAssay AID1963433 (Molecular Pharmacology Branch, DTP, NCI, 2024).

Test system: 772245-204-R-J1-PDC complex spheroid growth
Assay: Anticancer human tumor 772245-204-R-J1-PDC patient-derived rhabdomyosarcoma cell line growth inhibition [Asc]
Conditions: for IC50: curve of first compound; for viability, T/C: stronger effect = lower value
How it was run: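 Tumor cells were grown as multicellular spheroids with stromal HUVEC and mesenchymal stem cells and treated singly or in combination. Concentrations fell in half-log steps from the clinical Cmax, or from 10 microM where none was known.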

[1] = second compound 0.03 µM, first compound 0.0316 µM
[2] = second compound 0.03 µM, first compound 0.1 µM
[3] = second compound 0.03 µM, first compound 0.316 µM
[4] = second compound 0.03 µM, first compound 1 µM
[5] = second compound 0.03 µM, first compound 3.16 µM
[6] = second compound 0.03 µM, first compound 10 µM
[7] = second compound 0.0949 µM, first compound 0.0316 µM
[8] = second compound 0.0949 µM, first compound 0.1 µM
[9] = second compound 0.0949 µM, first compound 0.316 µM
[10] = second compound 0.0949 µM, first compound 1 µM
[11] = second compound 0.0949 µM, first compound 3.16 µM
[12] = second compound 0.0949 µM, first compound 10 µM
[13] = second compound 0.3 µM, first compound 0.0316 µM
[14] = second compound 0.3 µM, first compound 0.1 µM
[15] = second compound 0.3 µM, first compound 0.316 µM
[16] = second compound 0.3 µM, first compound 1 µM
[17] = second compound 0.3 µM, first compound 3.16 µM
[18] = second compound 0.3 µM, first compound 10 µM
[19] = second compound 0.949 µM, first compound 0.0316 µM
[20] = second compound 0.949 µM, first compound 0.1 µM
[21] = second compound 0.949 µM, first compound 0.316 µM
[22] = second compound 0.949 µM, first compound 1 µM
[23] = second compound 0.949 µM, first compound 3.16 µM
[24] = second compound 0.949 µM, first compound 10 µM
[25] = second compound 3 µM, first compound 0.0316 µM
[26] = second compound 3 µM, first compound 0.1 µM
[27] = second compound 3 µM, first compound 0.316 µM
[28] = second compound 3 µM, first compound 1 µM
[29] = second compound 3 µM, first compound 3.16 µM
[30] = second compound 3 µM, first compound 10 µM
[31] = second compound 0.03 µM, first compound 0.00316 µM
[32] = second compound 0.03 µM, first compound 0.01 µM
[33] = second compound 0.0949 µM, first compound 0.00316 µM
[34] = second compound 0.0949 µM, first compound 0.01 µM
[35] = second compound 0.3 µM, first compound 0.00316 µM
[36] = second compound 0.3 µM, first compound 0.01 µM
[37] = second compound 0.949 µM, first compound 0.00316 µM
[38] = second compound 0.949 µM, first compound 0.01 µM
[39] = second compound 3 µM, first compound 0.00316 µM
[40] = second compound 3 µM, first compound 0.01 µM
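Also: compound exposure lasted seven days.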
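For viability, T/C in this document: 100% = DMSO vehicle control viability.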

Compound	IC50 (second compound 0.03 µM)	IC50 (second compound 0.0949 µM)	IC50 (second compound 0.3 µM)	IC50 (second compound 0.949 µM)	IC50 (second compound 3 µM)	viability, T/C [1]	viability, T/C [2]	viability, T/C [3]	viability, T/C [4]	viability, T/C [7]	viability, T/C [8]	viability, T/C [9]	viability, T/C [10]	viability, T/C [13]	viability, T/C [14]	viability, T/C [15]	viability, T/C [19]	viability, T/C [20]	viability, T/C [25]	viability, T/C [26]	other results
C=C(F)C(=O)N1CCN(c2nc(OCC3CCCN3C)nc3c2CCN(c2cccc4cccc(Cl)c24)C3)CC1CC#N (stereo not given) + CCN1C(C(=O)NC23CCC(C(=O)O)(CC2)CC3)C(c2cccc(Cl)c2F)C2(C(=O)Nc3cc(Cl)ccc32)C12CCCCC2	3920 nM	3940 nM	4430 nM	3290 nM	2110 nM	94.9%	101%	83.1%	97.2%	93.7%	94.5%	85.3%	89.6%	95.8%	96.7%	85.6%	92.3%	83.7%	72.7%	79.8%	viability, T/C [5]: 61.6%; viability, T/C [6]: 0.2%; viability, T/C [11]: 61.7%; viability, T/C [12]: 0.17%; viability, T/C [16]: 87%; viability, T/C [17]: 71.8%; viability, T/C [18]: 0.18%; viability, T/C [21]: 91.6%; viability, T/C [22]: 96.7%; viability, T/C [23]: 51.9%; viability, T/C [24]: 0.16%; viability, T/C [27]: 72.5%; viability, T/C [28]: 73%; viability, T/C [29]: 37.5%; viability, T/C [30]: 0.38%
C=CC(=O)N1CCN(c2nc(=O)n(-c3c(C)ccnc3C(C)C)c3nc(-c4c(O)cccc4F)c(F)cc23)C(C)C1 (stereo not given) + CCN1C(C(=O)NC23CCC(C(=O)O)(CC2)CC3)C(c2cccc(Cl)c2F)C2(C(=O)Nc3cc(Cl)ccc32)C12CCCCC2	> 10000 nM	> 10000 nM	> 10000 nM	> 10000 nM	> 10000 nM	105%	102%	94.9%	113%	112%	104%	103%	102%	104%	111%	113%	111%	94.8%	81.9%	85.7%	viability, T/C [5]: 110%; viability, T/C [6]: 86.4%; viability, T/C [11]: 106%; viability, T/C [12]: 103%; viability, T/C [16]: 113%; viability, T/C [17]: 113%; viability, T/C [18]: 93.8%; viability, T/C [21]: 99.5%; viability, T/C [22]: 105%; viability, T/C [23]: 104%; viability, T/C [24]: 79.3%; viability, T/C [27]: 74%; viability, T/C [28]: 77%; viability, T/C [29]: 75.2%; viability, T/C [30]: 60.8%
COc1c(OCCCN2CCOCC2)ccc2c3n(c(=NC(=O)c4cnc(N)nc4)nc12)CCN3 + CCN1C(C(=O)NC23CCC(C(=O)O)(CC2)CC3)C(c2cccc(Cl)c2F)C2(C(=O)Nc3cc(Cl)ccc32)C12CCCCC2	188 nM	146 nM	90.5 nM	139 nM	51.4 nM	83.7%	61.6%	41.8%	32.3%	80%	57.5%	35.6%	24.8%	84.7%	46.6%	39.1%	77.2%	55.2%	57.4%	38.1%	viability, T/C [31]: 99.5%; viability, T/C [32]: 105%; viability, T/C [33]: 105%; viability, T/C [34]: 97.6%; viability, T/C [35]: 103%; viability, T/C [36]: 109%; viability, T/C [16]: 30%; viability, T/C [37]: 105%; viability, T/C [38]: 99%; viability, T/C [21]: 37.3%; viability, T/C [22]: 23%; viability, T/C [39]: 69.3%; viability, T/C [40]: 78.5%; viability, T/C [27]: 29.5%; viability, T/C [28]: 26.6%
NC1CCC(NC2CC2c2ccccc2)CC1 (stereo not given) + CCN1C(C(=O)NC23CCC(C(=O)O)(CC2)CC3)C(c2cccc(Cl)c2F)C2(C(=O)Nc3cc(Cl)ccc32)C12CCCCC2	> 100 nM	> 100 nM	> 100 nM	> 100 nM	> 100 nM	108%	98.1%			84.9%	93.5%			111%	89.8%		95.1%	96.3%	73.1%	75.4%	viability, T/C (second compound 0.03 µM, first compound 0.000316 µM): 103%; viability, T/C (second compound 0.03 µM, first compound 0.001 µM): 94.6%; viability, T/C [31]: 100%; viability, T/C [32]: 86.5%; viability, T/C (second compound 0.0949 µM, first compound 0.000316 µM): 96.3%; viability, T/C (second compound 0.0949 µM, first compound 0.001 µM): 96.3%; viability, T/C [33]: 90.3%; viability, T/C [34]: 92.5%; viability, T/C (second compound 0.3 µM, first compound 0.000316 µM): 106%; viability, T/C (second compound 0.3 µM, first compound 0.001 µM): 80.2%; viability, T/C [35]: 101%; viability, T/C [36]: 85.5%; viability, T/C (second compound 0.949 µM, first compound 0.000316 µM): 95.2%; viability, T/C (second compound 0.949 µM, first compound 0.001 µM): 80.8%; viability, T/C [37]: 83.6%; viability, T/C [38]: 86.9%; viability, T/C (second compound 3 µM, first compound 0.000316 µM): 70.2%; viability, T/C (second compound 3 µM, first compound 0.001 µM): 65.8%; viability, T/C [39]: 73.2%; viability, T/C [40]: 77.9%
